Experimental data published in patent publication US5763245A, “Method of controlling insects” (priority 1996, dated 1998).

Experiments:
[1] = test system: H. zea neonate larvae; test: B.t. / cholesterol oxidase synergy diet assay; format: in vivo, Helicoverpa zea; set-up: surv.: unit not given here; details: CO 15 ppm, alone or in tandem; for Mean Larval wgt / Stunting Observed: 7-day
Method: (§1) Feeding assays were conducted for 7-10 days.

[2] = test system: beet armyworm (BAW) neonate larvae; test: B.t. / cholesterol oxidase synergy diet assay; format: in vivo; details: each protein 15 ppm, alone or in tandem; for Mean Larval wgt / Stunting Observed: 7-day
Method: as §1

[3] = test system: Tobacco budworm (TBW) neonate larvae; test: B.t. / cholesterol oxidase synergy diet assay; format: in vivo; details: 7-day; for surv.: n 96
Method: as §1

[4] = test system: boll weevil larvae; test: Boll weevil larvae bioassay (diet incorporation); format: in vivo; details: for lethal effects against boll weevil: incorporated at up to 200 &M in the standard diet
Method: Assays for activity against boll weevil larvae are carried out by incorporating the test sample into a agar liquid diet similar to that for southern corn rootworm [Marrone et al., 1985]. The test sample is substituted for the 20% water component. Neonate larvae are allowed to feed on the diet and mortality and growth stunting are evaluated.
Protein concentrations were determined spectrophotometrically with BCA protein reagent [Smith et al., 1985].

[5] = test system: tobacco budworm larvae; test: Cottonseed diet (Pharmamedia flour) test with tobacco budworm; format: in vivo; details: 100 ppm in cottonseed diet (Pharmamedia flour)
Method: The Southern corn rootworm diet used in the assay described above was the control. Two treatment diets were made by mixing 30 g of one of two types of cottonseed flour into 170 mL of a 1.6% agar solution at 50% C, containing 0.13% propionic acid, 0.014% phosphoric acid, and 30 mg each of streptomycin sulfate and chlortetracycline. Before mixing, 10% KOH was used to adjust the pH to 6.2. One test diet utilized raw cottonseed flour (Sigma) as the nutrient source; the other utilized Pharmamedia™ (Traders Protein), a flour made up of cottonseed embryos. The diets were incubated in a water bath at 40% C. Dilutions of the Sigma Streptomyces 3-hydroxysteroid oxidase (cholesterol oxidase) were incorporated into the diets as described above. Boll weevil larvae were allowed to feed and mortality rates were determined after six days.
In addition, tobacco budworm larvae are 68% stunted when exposed to 3-hydroxysteroid oxidase (100 ppm) in cottonseed diet (made with Pharmamedia™ flour).

[6] = test system: midguts of boll weevil larvae; test: Midgut morphology of larvae feeding on enzyme diets; format: in vivo
Description: The enzymatic action in the gut is believed to be oxidation of the 3-hydroxysteroid(s) of the cell membranes in the lining of the gut. The effects of ingested 3-hydroxysteroid oxidase on the midguts of boll weevil larvae have been studied. The midguts of boll weevil larvae (neonate and second instar at initiation of assay) feeding on diets containing sublethal doses of 3-hydroxysteroid oxidase were dissected out. Representative midguts were immediately placed in fixative and analyzed microscopically for morphological changes. […] There was a good correlation of the morphological changes with the observed mortality over the 3-hydroxysteroid oxidase concentration range in the diet. Parallel midguts were dissected and homogenized and found to contain active 3-hydroxysteroid oxidase in enzymatic assays.

[7] = test system: boll weevil or lepidopteran larvae; test: Feeding of diet incubated with enzyme and then boiled; format: in vivo; details: diet incubated one week with the enzyme, then boiled
Description: While not being bound by this theory, it is believed that the 3-hydroxysteroid oxidase enzyme kills or stunts boll weevil larvae and stunts the growth of lepidopteran larvae by some action in the gut after ingestion.

[8] = test system: boll weevil larvae; test: Homogenized cotton leaf tissue assay; format: in vivo; details: six days, initial 24
Method: In order to test 3-hydroxysteroid oxidase against boll weevil larvae in a host tissue diet environment, a study was conducted in which cotton leaf tissue was the only nutritional component of an agar-based diet. Two cotton leaves (each approx. 5 inches wide ) with stems were homogenized at 50% C into 170 mL of a 1.6% agar solution containing 0.13% propionic acid, 0.014% phosphoric acid, and 30 mg each of streptomycin sulfate and chlortetracycline. Before addition of the leaves, 10% KOH was used to adjust the pH of the agar solution to 6.2. The leaf "diet" was allowed to cool to 40% C. Dilutions of cholesterol oxidase and a water control were incorporated into the leaf "diet", poured into insect diet trays and allowed to cool. Boll weevil eggs were added to the diet wells. The assay was evaluated six days later. […] This illustrates that the enzyme is insecticidal in the presence of intact cotton tissue and cells.

[9] = test system: black cutworm (BCW) larvae; test: B.t. / cholesterol oxidase synergy diet assay; format: in vivo, Agrotis ipsilon; details: each protein 15 ppm, alone or in tandem
[10] = test system: fall armyworn (FAW) neonate larvae; test: B.t. / cholesterol oxidase synergy diet assay; format: in vivo; details: 7-day; each protein 15 ppm, alone or in tandem
Method: as §1

[11] = test system: black cutworm (BCW) neonate; test: Detached leaf assay with transgenic corn; format: in vivo, Agrotis ipsilon; details: corn leaf tissue, 3d
Description: A detached leaf assay was designed to evaluate biological activity of transgenic corn expressing either CryIA(b) alone or in combination with cholesterol oxidase (CO) against Agrotis ipsilon, black cutworm (BCW). In artificial diet assays, a synergistic response was observed when CO and CryIA(b) were combined.
Treatments included transgenic corn expressing either CryIA(b) alone or in combination with CO. Plant tissue from the F1 generation of two CO events crossed to a CryIA(b) event was used in this bioassay. The CO events included collosian and flushed. The CryIA(b) event was ezra. For each of the CO events by CryIA(b) cross, the CO isopopulations provide the tissue for each treatment.
CO expression was estimated to be 15 and 14 ppm for collosian and flushed, respectively. CryIA(b) expression was not quantitated. Historically, this event has reliably and consistently expressed the CryIA(b) protein at around 10 ppm.
Tissue was collected at the v6 stage from the youngest leaf of six plants for each treatment event combination. Four leaf samples (1.5×2.0 cm leaf pieces) were taken from each plant, where each piece was placed singly in a well of a 24-well microtiter plate. One neonate larva was added to each well and sealed with a mylar lidding. The assay was incubated for 3 days at 27° C. Larval weight (mg) and mortality was recorded. […] Although larval weight was less in the CryIA(b)+CO treatment for both events as compared to CryIA(b) alone (ca. 12%), the difference between the treatment means within an event was not significant.

[12] = CO 15 ppm, CryIA(c) 0.1 ppm, alone or in tandem
[13] = CryIA(c) 0.05 ppm, alone or with CO 15 ppm

## CryIA(c): Bacillus thuringiensis crystal protein, purified
[1]; 7 day, CryIA(c) 15 ppm
  Obs. Mort.: 11%
  surv.: 82
[1]; 10 day, CryIA(c) 15 ppm
  Obs. Mort.: 11%
  surv.: 82
[2]
  Mean Larval wgt: 6.15 ± 0.90 mg
  Stunting Observed: 88%
[2]; 7 day
  Obs. Mort.: 2%
  surv.: 94
[2]; 8 day
  Obs. Mort.: 3%
  surv.: 70
[3]; [12]
  Obs. Mort.: 38%
  surv.: 56
[3]; [13]
  Obs. Mort.: 23%
  surv.: 70

## catalase [reference compound]
[4]; catalase added to 3-hydroxysteroid oxidase in the bioassay
  effect of added catalase on lethal effects of 3-hydroxysteroid oxidase on boll weevil: does not block the lethal effects

## CC(C)CCC[C@@H](C)[C@H]1CC[C@H]2[C@@H]3CCC4=CC(=O)CC[C@]4(C)[C@H]3CC[C@]12C [cholestenone, reference compound]
[4]
  lethal effects against boll weevil: Nor do cholestenone or hydrogen peroxide, the products of enzymatic action on cholesterol, exhibit any lethal effects

## cholesterol oxidase
[1]; CryIA(b) 10 ppm
  Mean Larval wgt: 24.95 mg
  Stunting Observed: 27%
[1]; 7 day, CryIA(b) 10 ppm
  Obs. Mort.: 0%
  surv.: 95
[1]; 7 day, CryIA(c) 15 ppm
  Obs. Mort.: 0%
  surv.: 96
[1]; 8 day, CryIA(b) 10 ppm
  Obs. Mort.: 1%
  surv.: 87
[1]; 10 day, CryIA(c) 15 ppm
  Obs. Mort.: 0%
  surv.: 96
[5]
  stunted: 68%
[6]; higher doses
  midgut morphological changes: complete lysis of the cells
[6]; larvae ingesting low doses
  midgut morphological changes: Disruption of the epithelial cell layer
[7]
  lethal or stunting effects: no lethal or stunting effects
[8]; 10 ppm in cotton leaf diet
  Bollweevils Survivors: 20
[8]; 50 ppm in cotton leaf diet
  Bollweevils Survivors: 12
[8]; 100 ppm in cotton leaf diet
  Bollweevils Survivors: 0
[9]; 3rd instar 6 day
  Obs. Mort.: 0%
  surv.: 32
[9]; 3rd instar, 6-day assay
  Mean Larval wgt: 197 mg
  Stunting Observed: 22%
[9]; Neonate 6 day
  Obs. Mort.: 2%
  surv.: 81
[9]; Neonate 7 day
  Obs. Mort.: 1%
  surv.: 61
[9]; Neonate, 7-day assay
  Mean Larval wgt: 9.93 mg
  Stunting Observed: 32%
[10]
  Mean Larval wgt: 42.97 ± 1.77 mg
  Obs. Mort.: 2%
  Stunting Observed: 0%
  surv.: 90
[2]
  Mean Larval wgt: 27.51 ± 5.52 mg
  Stunting Observed: 47%
[2]; 7 day
  Obs. Mort.: 1%
  surv.: 94
[2]; 8 day
  Obs. Mort.: 3%
  surv.: 77
[3]; [12]
  Obs. Mort.: 1%
  surv.: 90

## OO [hydrogen peroxide, reference compound]
[4]
  lethal effects against boll weevil: Nor do cholestenone or hydrogen peroxide, the products of enzymatic action on cholesterol, exhibit any lethal effects

## CryIA(b): Bacillus thuringiensis crystal protein, purified; in Table 24 expressed in transgenic corn event ezra
[1]; CryIA(b) 10 ppm
  Mean Larval wgt: 0.96 mg
  Stunting Observed: 97%
[1]; 7 day, CryIA(b) 10 ppm
  Obs. Mort.: 4.3%
  surv.: 90
[1]; 8 day, CryIA(b) 10 ppm
  Obs. Mort.: 10%
  surv.: 69
[11]; event collosian x ezra
  Mean Larval Weight: 1.11 mg
  Mort.: 7%
[11]; event flushed x ezra
  Mean Larval Weight: 1.27 mg
  Mort.: 8%
[9]; 3rd instar 6 day
  Obs. Mort.: 0%
  surv.: 32
[9]; 3rd instar, 6-day assay
  Mean Larval wgt: 216 mg
  Stunting Observed: 15%
[9]; Neonate 6 day
  Obs. Mort.: 0%
  surv.: 91
[9]; Neonate 7 day
  Obs. Mort.: 2%
  surv.: 76
[9]; Neonate, 7-day assay
  Mean Larval wgt: 13.64 mg
  Stunting Observed: 7%
[10]
  Mean Larval wgt: 0.25 ± 0.05 mg
  Obs. Mort.: 10%
  Stunting Observed: 99%
  surv.: 80
